According to PMC7617869, “Molecular glues that inhibit deubiquitylase activity and inflammatory signaling” (Nature Structural & Molecular Biology, 2025):
Several values for one entry are separate records, joined by “and”; a condition that tells them apart may be missing. Equal entries are not always repeated.

Experiments:
Experiment in all cases: DUB selectivity profiling (DUBprofiler, ubiquitin–rhodamine(110)–glycine)
Assay type in all cases: biochemical
[1] = molecular target: T1, panel of 48 purified DUBs (Homo sapiens, UniProt O75604); conditions: DUB USP2; screening concentration 5 μM; 5 µM
T1 construct: purchased Ubiquigent (DUBprofiler service)
Experimental: (§1) Biochemical selectivity profiling (DUBprofiler) was performed by Ubiquigent with a panel of 48 purified DUBs and ubiquitin–rhodamine(110)–glycine as a fluorescent substrate.

[2] = molecular target: T2, panel of 48 purified DUBs (Homo sapiens, UniProt O94782); conditions: DUB USP1/UAF1; screening concentration 5 μM; 5 µM
T2 construct: purchased Ubiquigent (DUBprofiler service)
Experimental: as §1

[3] = molecular target: T3, panel of 48 purified DUBs (Homo sapiens, UniProt O94966); conditions: DUB USP19; screening concentration 5 μM; 5 µM
T3 construct: purchased Ubiquigent (DUBprofiler service)
Experimental: as §1

[4] = molecular target: T4, panel of 48 purified DUBs (Homo sapiens, UniProt P09936); conditions: DUB UCHL1; screening concentration 5 μM; 5 µM
T4 construct: purchased Ubiquigent (DUBprofiler service)
Experimental: as §1

[5] = molecular target: T5, panel of 48 purified DUBs (Homo sapiens, UniProt P15374); conditions: DUB UCHL3; screening concentration 5 μM; 5 µM
T5 construct: purchased Ubiquigent (DUBprofiler service)
Experimental: as §1

[6] = molecular target: T6, panel of 48 purified DUBs (Homo sapiens, UniProt P35125); conditions: DUB USP6; screening concentration 5 μM; 5 µM
T6 construct: purchased Ubiquigent (DUBprofiler service)
Experimental: as §1

[7] = molecular target: T7, panel of 48 purified DUBs (Homo sapiens, UniProt P40818); conditions: DUB USP8; screening concentration 5 μM; 5 µM
T7 construct: purchased Ubiquigent (DUBprofiler service)
Experimental: as §1

[8] = molecular target: T8, panel of 48 purified DUBs (Homo sapiens, UniProt P45974); conditions: DUB USP5; screening concentration 5 μM; 5 µM
T8 construct: purchased Ubiquigent (DUBprofiler service)
Experimental: as §1

[9] = molecular target: T9, panel of 48 purified DUBs (Homo sapiens, UniProt P54252); conditions: DUB Ataxin3; screening concentration 5 μM; 5 µM
T9 construct: purchased Ubiquigent (DUBprofiler service)
Experimental: as §1

[10] = molecular target: T10, panel of 48 purified DUBs (Homo sapiens, UniProt Q13107); conditions: DUB USP4; screening concentration 5 μM
T10 construct: purchased Ubiquigent (DUBprofiler service)
Experimental: as §1

[11] = molecular target: T11, panel of 48 purified DUBs (Homo sapiens, UniProt Q14694); conditions: DUB USP10; screening concentration 5 μM; 5 µM
T11 construct: purchased Ubiquigent (DUBprofiler service)
Experimental: as §1

[12] = molecular target: T12, panel of 48 purified DUBs (Homo sapiens, UniProt Q15040); conditions: DUB JOSD1; screening concentration 5 μM
T12 construct: purchased Ubiquigent (DUBprofiler service)
Experimental: as §1

[13] = molecular target: T13, panel of 48 purified DUBs (Homo sapiens, UniProt Q5T2D3); conditions: DUB OTUD3; screening concentration 5 μM; 5 µM
T13 construct: purchased Ubiquigent (DUBprofiler service)
Experimental: as §1

[14] = molecular target: T14, panel of 48 purified DUBs (Homo sapiens, UniProt Q6GQQ9); conditions: DUB Cezanne; screening concentration 5 μM; 5 µM
T14 construct: purchased Ubiquigent (DUBprofiler service)
Experimental: as §1

[15] = molecular target: T15, panel of 48 purified DUBs (Homo sapiens, UniProt Q6R6M4); conditions: DUB USP17; screening concentration 5 μM; 5 µM
T15 construct: purchased Ubiquigent (DUBprofiler service)
Experimental: as §1

[16] = molecular target: T16, panel of 48 purified DUBs (Homo sapiens, UniProt Q7L8S5); conditions: DUB OTUD6A; screening concentration 5 μM; 5 µM
T16 construct: purchased Ubiquigent (DUBprofiler service)
Experimental: as §1

[17] = molecular target: T17, panel of 48 purified DUBs (Homo sapiens, UniProt Q86UV5); conditions: DUB USP48; screening concentration 5 μM; 5 µM
T17 construct: purchased Ubiquigent (DUBprofiler service)
Experimental: as §1

[18] = molecular target: T18, panel of 48 purified DUBs (Homo sapiens, UniProt Q8N6M0); conditions: DUB OTUD6B; screening concentration 5 μM; 5 µM
T18 construct: purchased Ubiquigent (DUBprofiler service)
Experimental: as §1

[19] = molecular target: T19, panel of 48 purified DUBs (Homo sapiens, UniProt Q92560); conditions: DUB BAP1; screening concentration 5 μM; 5 µM
T19 construct: purchased Ubiquigent (DUBprofiler service)
Experimental: as §1

[20] = molecular target: T20, panel of 48 purified DUBs (Homo sapiens, UniProt Q96DC9); conditions: DUB OTUB2; screening concentration 5 μM; 5 µM
T20 construct: purchased Ubiquigent (DUBprofiler service)
Experimental: as §1

[21] = molecular target: T21, panel of 48 purified DUBs (Homo sapiens, UniProt Q96FJ0); conditions: screening concentration 5 μM, 5 µM
T21 construct: purchased Ubiquigent (DUBprofiler service)
Experimental: as §1

[22] = molecular target: T22, panel of 48 purified DUBs (Homo sapiens, UniProt Q96JH7); conditions: DUB VCPIP; screening concentration 5 μM
T22 construct: purchased Ubiquigent (DUBprofiler service)
Experimental: as §1

[23] = molecular target: T23, panel of 48 purified DUBs (Homo sapiens, UniProt Q96RU2); conditions: DUB USP28; screening concentration 5 μM; 5 µM
T23 construct: purchased Ubiquigent (DUBprofiler service)
Experimental: as §1

[24] = molecular target: T24, panel of 48 purified DUBs (Homo sapiens, UniProt Q9P275); conditions: DUB USP36; screening concentration 5 μM; 5 µM
T24 construct: purchased Ubiquigent (DUBprofiler service)
Experimental: as §1

[25] = molecular target: T25, panel of 48 purified DUBs (Homo sapiens, UniProt Q9P2H5); conditions: DUB USP35; screening concentration 5 μM; 5 µM
T25 construct: purchased Ubiquigent (DUBprofiler service)
Experimental: as §1

[26] = molecular target: T26, panel of 48 purified DUBs (Homo sapiens, UniProt Q9UPU5); conditions: DUB USP24; screening concentration 5 μM; 5 µM
T26 construct: purchased Ubiquigent (DUBprofiler service)
Experimental: as §1

[27] = molecular target: T27, panel of 48 purified DUBs (Homo sapiens, UniProt Q9Y2K6); conditions: DUB USP20; screening concentration 5 μM; 5 µM
T27 construct: purchased Ubiquigent (DUBprofiler service)
Experimental: as §1

[28] = molecular target: T28, panel of 48 purified DUBs (Homo sapiens, UniProt Q9Y5K5); conditions: DUB UCHL5; screening concentration 5 μM; 5 µM
T28 construct: purchased Ubiquigent (DUBprofiler service)
Experimental: as §1

[29] = molecular target: T29, panel of 48 purified DUBs (Homo sapiens, UniProt Q9Y5T5); conditions: DUB USP16; screening concentration 5 μM; 5 µM
T29 construct: purchased Ubiquigent (DUBprofiler service)
Experimental: as §1

[30] = tested on: panel of 48 purified DUBs; conditions: single dose 5 μM, including AMSH-LP
Experimental: as §1

T21 sequence (Q96FJ0 whole entry): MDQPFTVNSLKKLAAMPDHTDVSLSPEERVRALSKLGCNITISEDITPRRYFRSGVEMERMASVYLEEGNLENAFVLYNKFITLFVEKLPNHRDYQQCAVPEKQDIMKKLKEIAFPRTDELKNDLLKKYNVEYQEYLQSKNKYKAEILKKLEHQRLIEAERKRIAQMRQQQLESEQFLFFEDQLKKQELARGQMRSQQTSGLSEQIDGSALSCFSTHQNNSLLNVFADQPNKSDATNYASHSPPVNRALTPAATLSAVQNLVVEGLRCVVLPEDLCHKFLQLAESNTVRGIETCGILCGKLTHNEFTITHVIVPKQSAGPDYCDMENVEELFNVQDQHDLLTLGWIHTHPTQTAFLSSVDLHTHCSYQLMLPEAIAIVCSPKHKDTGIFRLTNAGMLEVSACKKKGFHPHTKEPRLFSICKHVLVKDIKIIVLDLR
T2 sequence (O94782 whole entry): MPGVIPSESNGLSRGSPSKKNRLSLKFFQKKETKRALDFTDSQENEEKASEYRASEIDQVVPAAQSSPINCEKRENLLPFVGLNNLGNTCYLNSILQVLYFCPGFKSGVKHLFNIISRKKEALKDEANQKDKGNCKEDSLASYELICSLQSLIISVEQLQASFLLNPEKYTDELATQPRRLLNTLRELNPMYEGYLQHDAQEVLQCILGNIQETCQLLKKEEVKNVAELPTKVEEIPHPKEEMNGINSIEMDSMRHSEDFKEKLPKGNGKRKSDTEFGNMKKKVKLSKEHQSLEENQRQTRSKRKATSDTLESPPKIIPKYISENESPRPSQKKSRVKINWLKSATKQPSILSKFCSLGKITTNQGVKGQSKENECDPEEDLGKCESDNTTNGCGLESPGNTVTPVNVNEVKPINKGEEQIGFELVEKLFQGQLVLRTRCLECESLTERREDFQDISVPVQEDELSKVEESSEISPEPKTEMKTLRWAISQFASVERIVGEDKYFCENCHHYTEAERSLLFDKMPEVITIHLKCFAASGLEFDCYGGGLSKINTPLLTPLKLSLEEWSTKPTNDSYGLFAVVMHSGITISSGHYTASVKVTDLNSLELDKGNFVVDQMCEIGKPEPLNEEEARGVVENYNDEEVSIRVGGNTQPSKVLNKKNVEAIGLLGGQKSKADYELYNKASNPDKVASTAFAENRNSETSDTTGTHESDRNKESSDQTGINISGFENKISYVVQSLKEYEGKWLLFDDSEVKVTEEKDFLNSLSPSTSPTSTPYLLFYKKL
T23 sequence (Q96RU2 whole entry): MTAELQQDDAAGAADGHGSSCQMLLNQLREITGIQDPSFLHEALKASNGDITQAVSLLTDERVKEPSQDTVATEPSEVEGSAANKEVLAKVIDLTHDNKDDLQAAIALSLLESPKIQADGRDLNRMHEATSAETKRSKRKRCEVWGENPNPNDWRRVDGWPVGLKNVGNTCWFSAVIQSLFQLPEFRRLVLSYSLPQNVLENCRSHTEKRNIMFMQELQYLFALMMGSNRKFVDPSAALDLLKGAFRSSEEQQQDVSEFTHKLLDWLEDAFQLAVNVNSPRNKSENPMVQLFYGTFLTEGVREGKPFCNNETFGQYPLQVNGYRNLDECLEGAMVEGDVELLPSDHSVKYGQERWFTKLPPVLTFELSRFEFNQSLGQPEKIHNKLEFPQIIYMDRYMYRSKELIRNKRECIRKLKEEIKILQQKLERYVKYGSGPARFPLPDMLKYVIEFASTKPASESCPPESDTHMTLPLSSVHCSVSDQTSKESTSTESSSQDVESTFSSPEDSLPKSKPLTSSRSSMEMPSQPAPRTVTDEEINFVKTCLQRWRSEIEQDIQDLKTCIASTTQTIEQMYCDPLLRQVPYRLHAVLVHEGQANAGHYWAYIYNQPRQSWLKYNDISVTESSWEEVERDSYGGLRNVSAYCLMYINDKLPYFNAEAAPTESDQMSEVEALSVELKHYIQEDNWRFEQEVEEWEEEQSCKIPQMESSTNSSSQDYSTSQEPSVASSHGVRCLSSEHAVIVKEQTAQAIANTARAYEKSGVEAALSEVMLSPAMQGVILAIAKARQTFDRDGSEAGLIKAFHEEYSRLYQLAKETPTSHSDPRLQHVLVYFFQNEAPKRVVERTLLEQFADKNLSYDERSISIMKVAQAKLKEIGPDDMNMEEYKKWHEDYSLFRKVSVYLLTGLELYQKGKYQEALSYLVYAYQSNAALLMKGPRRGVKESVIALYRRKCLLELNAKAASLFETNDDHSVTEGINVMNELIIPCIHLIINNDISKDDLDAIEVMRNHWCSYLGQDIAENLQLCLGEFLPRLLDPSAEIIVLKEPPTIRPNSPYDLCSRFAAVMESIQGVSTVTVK
T5 sequence (P15374 whole entry): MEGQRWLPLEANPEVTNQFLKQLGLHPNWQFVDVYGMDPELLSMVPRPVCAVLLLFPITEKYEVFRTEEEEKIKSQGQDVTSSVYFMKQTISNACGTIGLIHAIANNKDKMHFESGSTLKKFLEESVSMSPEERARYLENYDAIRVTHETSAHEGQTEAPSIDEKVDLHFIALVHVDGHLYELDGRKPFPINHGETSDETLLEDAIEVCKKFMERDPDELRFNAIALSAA
T7 sequence (P40818 whole entry): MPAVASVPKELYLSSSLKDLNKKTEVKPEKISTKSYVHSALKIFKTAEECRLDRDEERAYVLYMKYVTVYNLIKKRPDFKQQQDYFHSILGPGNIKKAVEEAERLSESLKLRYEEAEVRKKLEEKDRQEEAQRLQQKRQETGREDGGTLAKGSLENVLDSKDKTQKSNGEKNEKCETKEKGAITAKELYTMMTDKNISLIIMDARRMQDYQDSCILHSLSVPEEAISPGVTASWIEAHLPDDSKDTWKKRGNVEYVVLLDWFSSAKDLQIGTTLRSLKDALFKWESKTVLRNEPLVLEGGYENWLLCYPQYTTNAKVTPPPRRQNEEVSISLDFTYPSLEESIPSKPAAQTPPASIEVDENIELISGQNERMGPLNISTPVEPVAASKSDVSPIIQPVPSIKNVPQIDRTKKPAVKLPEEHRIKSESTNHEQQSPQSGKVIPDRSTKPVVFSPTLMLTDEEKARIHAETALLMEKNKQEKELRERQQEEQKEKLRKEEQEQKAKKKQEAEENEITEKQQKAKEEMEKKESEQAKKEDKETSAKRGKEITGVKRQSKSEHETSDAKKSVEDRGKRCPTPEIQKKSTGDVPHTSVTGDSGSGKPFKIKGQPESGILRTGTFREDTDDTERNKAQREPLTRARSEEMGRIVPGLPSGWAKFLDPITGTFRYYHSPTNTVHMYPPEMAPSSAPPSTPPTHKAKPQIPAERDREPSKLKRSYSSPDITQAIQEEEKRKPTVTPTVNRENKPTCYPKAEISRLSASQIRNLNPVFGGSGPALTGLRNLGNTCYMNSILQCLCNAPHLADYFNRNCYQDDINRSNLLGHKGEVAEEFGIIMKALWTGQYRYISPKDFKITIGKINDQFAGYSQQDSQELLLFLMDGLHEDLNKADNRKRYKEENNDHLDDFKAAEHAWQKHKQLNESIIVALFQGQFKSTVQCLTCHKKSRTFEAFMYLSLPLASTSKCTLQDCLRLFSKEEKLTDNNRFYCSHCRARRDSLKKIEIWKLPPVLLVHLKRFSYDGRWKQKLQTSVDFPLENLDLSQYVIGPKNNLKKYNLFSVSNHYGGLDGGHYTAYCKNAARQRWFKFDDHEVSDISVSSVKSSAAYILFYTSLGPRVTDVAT
T16 sequence (Q7L8S5 whole entry): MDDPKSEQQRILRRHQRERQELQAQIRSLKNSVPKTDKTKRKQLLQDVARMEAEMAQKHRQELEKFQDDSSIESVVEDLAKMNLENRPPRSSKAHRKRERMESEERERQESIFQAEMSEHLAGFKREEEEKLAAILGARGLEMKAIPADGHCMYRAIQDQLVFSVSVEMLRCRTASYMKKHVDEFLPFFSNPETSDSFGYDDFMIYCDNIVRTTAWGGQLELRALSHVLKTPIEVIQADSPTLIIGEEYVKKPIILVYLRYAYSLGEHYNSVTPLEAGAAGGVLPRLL
T20 sequence (Q96DC9 whole entry): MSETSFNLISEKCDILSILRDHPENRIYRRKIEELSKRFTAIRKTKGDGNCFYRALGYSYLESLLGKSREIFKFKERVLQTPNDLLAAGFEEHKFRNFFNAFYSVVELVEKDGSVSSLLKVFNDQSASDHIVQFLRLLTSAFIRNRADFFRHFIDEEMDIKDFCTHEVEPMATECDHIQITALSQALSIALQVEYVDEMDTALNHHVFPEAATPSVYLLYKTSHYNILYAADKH
T9 sequence (P54252 whole entry): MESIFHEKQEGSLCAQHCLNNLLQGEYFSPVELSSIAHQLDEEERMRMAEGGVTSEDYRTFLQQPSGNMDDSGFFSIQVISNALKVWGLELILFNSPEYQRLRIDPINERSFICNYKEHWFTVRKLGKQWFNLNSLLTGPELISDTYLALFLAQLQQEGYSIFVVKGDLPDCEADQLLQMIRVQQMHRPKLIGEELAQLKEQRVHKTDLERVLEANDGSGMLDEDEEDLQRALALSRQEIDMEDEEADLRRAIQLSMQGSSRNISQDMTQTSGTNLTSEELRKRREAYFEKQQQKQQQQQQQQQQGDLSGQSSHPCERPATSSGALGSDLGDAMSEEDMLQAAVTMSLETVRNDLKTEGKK
T13 sequence (Q5T2D3 whole entry): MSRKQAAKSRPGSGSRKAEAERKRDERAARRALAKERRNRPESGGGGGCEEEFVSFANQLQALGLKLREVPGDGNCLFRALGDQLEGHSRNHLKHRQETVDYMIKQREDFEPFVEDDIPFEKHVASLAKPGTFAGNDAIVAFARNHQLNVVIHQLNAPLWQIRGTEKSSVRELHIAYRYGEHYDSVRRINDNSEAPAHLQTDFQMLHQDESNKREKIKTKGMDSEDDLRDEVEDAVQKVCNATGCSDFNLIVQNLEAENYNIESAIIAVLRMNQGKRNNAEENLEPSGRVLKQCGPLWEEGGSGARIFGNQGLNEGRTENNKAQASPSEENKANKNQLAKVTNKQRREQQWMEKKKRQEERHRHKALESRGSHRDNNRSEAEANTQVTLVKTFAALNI

Activity (% control) [1]: 86 % control and 84 % control | Activity (% control) [2]: 81 % control and 82 % control | Activity (% control) [3]: 100 % control and 99 % control | Activity (% control) [4]: 104 % control and 112 % control | Activity (% control) [5]: 95 % control and 96 % control | Activity (% control) [6]: 92 % control and 95 % control | Activity (% control) [7]: 88 % control and 84 % control | Activity (% control) [8]: 103 % control and 105 % control | Activity (% control) [10]: 101 % control | Activity (% control) [11]: 95 % control and 102 % control | Activity (% control) [12]: 67 % control | Activity (% control) [13]: 95 % control and 93 % control | Activity (% control) [14]: 88 % control and 90 % control | Activity (% control) [15]: 89 % control and 83 % control | Activity (% control) [16]: 100 % control and 103 % control | Activity (% control) [17]: 99 % control and 103 % control | Activity (% control) [18]: 102 % control and 101 % control | Activity (% control) [19]: 92 % control and 96 % control | Activity (% control) [20]: 97 % control and 96 % control | Activity (% control) ([21]; DUB AMSH-LP(+Zn2+)): 100 % control and 99 % control | Activity (% control) ([21]; DUB AMSH-LP): 98 % control and 90 % control | Activity (% control) [22]: 93 % control | Activity (% control) [23]: 107 % control and 96 % control | Activity (% control) [24]: 108 % control and 117 % control | Activity (% control) [25]: 96 % control and 94 % control | Activity (% control) [26]: 98 % control and 99 % control | Activity (% control) [27]: 93 % control and 101 % control | Activity (% control) [28]: 90 % control and 98 % control | Activity (% control) [29]: 79 % control and 78 % control
Structure (SMILES): O=C(NC1CCNCC1)c1nn(C(=O)c2c(Cl)cccc2Cl)cc1NC(=O)c1c(Cl)cccc1Cl [JMS-175-2]
Activity (% control) [9]: 87 % control and 85 % control | inhibition of a panel of 48 DUBs [30]: did not fully inhibit any of the DUBs
